From PMC4449000, “Acyclovir Has Low but Detectable Influence on HLA-B*57:01 Specificity without Inducing Hypersensitivity” (PLoS ONE, 2015)
“And” between values parts separate entries of the source, which are not always exact repeats. Equal entries are not always repeated. Structures can show the parent of a compound that is named as a salt. Where two headings read alike, the source gives them in different places. Ends that are not written are not given here.

Tests used:
purified HLA-B*57:01 [1] = molecular target: T1, purified HLA-B*57:01 (Homo sapiens, UniProt P01889, D201E/D98Y/E176V/E187L/E204Q/E69M/E70A/G107R/I90N/K202T/L105A/L119I/N104I/N87E/Q89R/Q94S/R106L/R155S/R180L/R86G/S101N/S121V/S35A/S48A/T118I/V36M/Y140S/Y91M); assay: HLA binding assay: inhibition of binding of a radiolabeled standard peptide to purified HLA-B*57:01 (competition); settings: for number of the 7 peptides ending in I with increased affinity for HLA-B*57:01: 7 individual peptides with I at P9, two independent runs in triplicates (Fig 5); for IC50: Mean ± SEM, S5 Fig, unit inferred
HLA-B*57:01 = HLA-B*57:01 (Homo sapiens, UniProt P01889, D201E/D98Y/E176V/E187L/E204Q/E69M/E70A/G107R/I90N/K202T/L105A/L119I/N104I/N87E/Q89R/Q94S/R106L/R155S/R180L/R86G/S101N/S121V/S35A/S48A/T118I/V36M/Y140S/Y91M); assay: Direct binding of radiolabeled […] to HLA-B*57:01 without competitor peptide; settings: increasing doses of drug, four experimental runs in triplicates (Fig 6A)
Experimental: (§1) Quantitative assays to measure the binding affinity of peptides to purified HLA-B*57:01 molecules based on the inhibition of binding of a radiolabeled standard peptide were performed as previously described. Briefly, 1–10 nM of radiolabeled peptide was co-incubated at room temperature with 1 nM to 1 μM purified HLA-B*57:01 in the presence of 1–3 μM human β2-microglobulin (Scripps Laboratories; San Diego, CA) and a mixture of protease inhibitors. After a 2-day incubation, binding of the radiolabeled peptide to the MHC class I molecule was determined by capturing MHC/peptide complexes on Greiner Lumitrac 600 microplates (Greiner Bio-One; Monroe, North Carilina) coated with the W6/32 antibody, and measuring bound counts per minute (cpm) using the TopCount microscintillation […] counter (PerkinElmer; Waltham, Massachusetts). For competition assays, the concentration of peptide yielding IC50 of the binding of the radiolabeled peptide was calculated. Peptides were typically tested at six different concentrations covering a 100,000-fold dose range.
(§2) For direct binding studies in the absence of a competitor peptide, a purified peptide with sequence […] was ordered from Synthetic Biomolecules (San Diego, CA) and its affinity for either HLA-B*57:01 or HLA-B*58:01 was tested in the presence or absence of abacavir, or acyclovir, in a dose dependent manner.

HLA-B*58:01 = HLA-B*58:01 (Homo sapiens, UniProt P01889, A329T/C349S/D201E/D98Y/E176V/E187L/E204Q/E69T/G107R/I218V/I90N/K202T/L105A/L119I/N104I/N87E/Q89R/Q94S/R106L/R155S/R180L/R86G/S101N/S121R/S35A/S48A/T118I/V127L/V306I/V36M/Y140S/Y91M); assay: Direct binding of radiolabeled […] to HLA-B*58:01 (control); settings: control allele (Fig 6B)
Experimental: as §1, §2

[2] = tested on: HLA-B*57:01 positive PBMC; assay: Culture and detection of drug responsive T cells (intracellular IFN-γ, flow cytometry); assay type: cell-based, human; settings: 10 μg/mL drug, 14 day culture, restimulation with drug treated C1R.B57; two of two donors
Experimental: Drug responsive short-term T cell lines were produced from cryopreserved PBMC, as previously described. […] From day 3 and every 3 days, 50% of media was replaced and 20 U/ml of recombinant human interleukin (IL)-2 (Peprotech) was added to cultures. […] Samples were surface labeled for CD4 and CD8 expression on ice and then fixed and permeabilized for the detection of intra-cellular IFN-γ, as previously described. Abacavir responsive cells were then detected using flow cytometry (Gallios; Beckman Coulter). Lymphocytes were gated on the basis of forward and side scatter properties. The lymphocyte gate was then gated for CD8, but not CD4, positivity using a Boolean logic gate. The frequency of CD8 and IFN-γ double positive cells was determined using Kaluza software (Beckman Coulter).

purified HLA-B*57:01 [3] = molecular target: T1, purified HLA-B*57:01; settings: previously observed; cited from earlier work
[4] = tested on: HLA-B*57:01 single allele transfected 721.221 cell line; settings: abacavir; not measured in this paper, no reference printed at b57; cited from earlier work
[5] = tested on: HLA-B*57:01 single allele transfected 721.221 cell line; assay: Peptide elution and LC-MS identification from drug-treated cells; assay type: cell-based, human
Experimental: For elution studies, 4–5 x 10^9 cells from the HLA-B*57:01 single allele transfected 721.221 cell line were used. Treated cells were incubated with acyclovir at a concentration of 500 μg/mL for 14 hr at 37°. Cells were harvested and stored at -80°C. Upon thawing, cells were lysed using cell lysis buffer in the presence of protease inhibitors. The lysate was centrifuged at 100,000 x g for 1 hr and the supernatant was collected and passed through a 0.8/0.2 μm filter (VWR International, TX). The filtrate was collected and passed through a sepharose CL-4B (Sigma-Aldrich, MO) column to capture any remaining materials in the lysate that may clog the antibody columns. The filtrate was then passaged through a column packed with protein A sepharose (PAS) beads (sigma) coated with MK-D6 (MTCC HB-3, VA) antibody which served to as an irrelevant antibody (specific for the mouse class II molecule, I-A^d) used to derive a negative control peptide extract. Next, the filtrate was passed through a second PAS column coated with W6/32 antibody (MTCC HB-95) which captures HLA class I molecules. The columns were washed sequentially with: 1) 2 column volumes of lysis buffer, 2) 20 column volumes of 20 mM Tris-HCL (pH 8.0, 150 mM NaCl), 3) 20 column volumes of 20 mM Tri-HCl (pH 8.0, 1.0 M NaCl), and 4) 20 column volumes of 20 mM Tris-HCl (pH 8.0), and then eluted with 4 column volumes of 0.2 M glacial acetic acid. The eluted peptides were then collected and spun at 3,500g at 4°C until 98% of the solution had passed through Millipore ultrafiltration units with a 3,500 Da cut-off (EMD Millipore, MA) to exclude β-2 microglobulin. The filtrate was then collected and concentrated in vacuo for LC-MS analysis.
Peptides were analyzed by nanoflow high-performance liquid chromatography (HPLC)/microelectrospray ionization, coupled directly to a Thermo Fisher Scientific FT-ICR mass spectrometer, equipped with a home-built, front-end electron transfer dissociation (FETD) source. An aliquot of peptide sample was taken to dryness in a vacuum concentrator. Peptides were amidated in a solution that contained 1M histamine-HCl (20 μL) in 1M pyridine-HCl buffer and 0.1M EDC in pyridine-HCl buffer. The solution was sonicated for 3 hours before being dried in a vacuum concentrator and then reconstituted in 0.1% acetic acid.
Data were acquired as previously described. In brief, a pre-column, loaded with 5×10^7 to 2×10^8 cell equivalents of HLA-B*57:01 eluted peptides was connected with polytetrafluoroethylene tubing (0.06-in. o.d. and 0.012-in. i.d.; Zeus Industrial Products) to the end of an analytical HPLC column (360 μm o.d.×50 μm i.d.) containing 6–7 cm of C18 reverse-phase packing material (5-μm particles; YMC). […]

Compound	number of the 7 peptides ending in I with increased affinity for HLA-B*57:01 (purified HLA-B*57:01 [1])	largest change / increase of peptide binding affinity (IC50) for HLA-B*57:01 in the presence of the drug (purified HLA-B*57:01 [1]; individual peptides, summary statement)	increase in the level of bound peptide […] on HLA-B*57:01 (HLA-B*57:01; radiolabeled […])	effect of drug on binding of […] to HLA-B*58:01 (HLA-B*58:01; radiolabeled […])	drug specific CD8+/IFN-γ+ T-cell response in PBMC primed and restimulated with the same drug [2]	increase in affinity for I and V peptides in the presence of abacavir (PSCPL) (purified HLA-B*57:01 [3]) [fold]	peptides with a C-terminal valine presented exclusively in the presence of the drug [4]	change in HLA-B*57:01 affinity of peptides ending in C (purified HLA-B*57:01 [1]; individual peptides with C at P9 (S4 Fig))	effect on HLA-B*57:01 binding affinity for three 9-mer peptides with a C-terminal valine (purified HLA-B*57:01 [1]; screen of seven drugs, one experimental run in quadruplicates (S3 Fig))	increase in the level of bound peptide KAAKYRVSV on HLA-B*57:01 (HLA-B*57:01; radiolabeled KAAKYRVSV) [fold]	effect of drug on binding of KAAKYRVSV to HLA-B*58:01 (HLA-B*58:01; radiolabeled KAAKYRVSV)	unique peptide sequences identified from the drug treated sample only ([5]; acyclovir 500 μg/mL, 14 hr, 37°, excludes 91 sequences present in both samples)	number of eluted peptides with a C-terminal isoleucine in the presence of the drug ([5]; acyclovir 500 μg/mL, 14 hr, includes three peptides present in both samples, vs four in untreated, p = 0.073)	Number of peptides that do not have isoleucine at C terminus (Treated) ([5]; acyclovir treated cells, peptides found in both treated and untreated samples not included)	Number of peptides that have isoleucine at C terminus (Treated) ([5]; acyclovir treated cells, peptides found in both treated and untreated samples not included, one-sided Fisher's exact test p = 0.0726)	IC50 (purified HLA-B*57:01 [1]; 0.5 mg/mL acyclovir, p < 0.01 vs vehicle, read-out: IC-50 for HLA-B*57:01, 0.5 mg/mL acyclovir) [nM]	IC50 (purified HLA-B*57:01 [1]; vehicle, read-out: IC-50 for HLA-B*57:01, vehicle) [nM]
Nc1nc(NC2CC2)c2ncn([C@H]3C=C[C@@H](CO)C3)c2n1 [abacavir, Abacavir sulfate]	all seven	≤ 1000 fold and 1,000 fold	up to 5 fold	unaffected	expanded population of CD8 positive / IFN-γ positive T-cells	10	15	–	–	–	–	–	–	–	–	–	–
Nc1nc2c(ncn2COCCO)c(=O)[nH]1 [acyclovir]	two	–	–	–	could not detect any acyclovir specific response	–	–	None of the peptides ending in C showed any change	small but consistent increase	2	unaffected	169	twelve	160	9	–	–
RARQLNYTI	–	–	–	–	–	–	–	–	–	–	–	–	–	–	–	7.1 ± 1	13.7 ± 1.3
